Like-named read-outs stand apart in the source and are kept apart here. A value given as a limit tells only on which side of the number the result lay.

The IC50 is the point on the concentration scale where inhibition reaches its midpoint. Broadly, the AUC(0-t) is exposure summed from dosing to a finite time, without extrapolation to infinity. The clearance is the rate of elimination divided by the concentration. One may read the half-life as the time needed for the level to fall by half in the phase considered. What is called inhibition is the change of the read-out against control, counted positive when it falls.

The test system of data set [1] is human non-small cell lung cancer cells NCI-H358 with KRas G12C mutation. Kind of data set: NCI-H358 cell proliferation, CellTiter-Glo Luminescent Cell Viability Assay. To be noted: for inhibition at 1 µM: 1 μM compound, read-out: Inhibition rate % (1 μM). It counts as cell-based. An excerpt: This assay verified the inhibitory activity of the compounds of the present disclosure on the proliferation of human non-small cell lung cancer cells NCI-H358 with KRas G12C mutation by using Promega's CellTiter-Glo® Luminescent Cell Viability Assay kit.
[Test materials]: NCI-H358 cell line (Cell Resource Center, IBMS, CAMS/PUMC, Item number: 3111C0001CCC000470), 96-well transparent flat-bottomed black-walled cell culture plate (Greiner Bio one, Cat #655096), RPMI-1640 Medium (GE, Cat #SH30809.01), Fetal Bovine Serum FBS (Thermo Fisher, Cat #10099-141), CellTiter-Glo® Luminescent Cell Viability Assay Kit (Promega, Cat #G7573), PBS (Solarbio, Cat #P1020), Trypsin (Thermo Fisher, Cat #25200072), DMSO (Sigma, Cat #D2650), Methyl cellulose (SIGMA, Cat #9004-67-5).
[Experimental procedure]: 180 μL of cell suspension (RPMI1640 solution with 10% FBS and 1% methyl cellulose) was charged to a 96-well cell culture plate at a density of 1500 cells/well. A control group containing no cells, no compounds and only 3D complete medium (RPMI 1640 solution with 1! Methyl cellulose and 10% FBS) (i.e. culture medium control) and a control group containing no compounds but cells (i.e. cell control) were set. AMG510 or the following reference compounds were used as positive controls. The cell plate was placed in a cell incubator overnight. A 10-fold drug solution (RPMI1640 solution with 10% FBS and 1% DMSO) was prepared at a concentration of 10 μM, and 20 μL of this solution was added to each well of the 96-well plate seeded with cells, so that the final concentration of the compounds in each well was 1 μM, and the DMSO concentration […] replicate wells were set up for each compound. The solutions of AMG510 or the following reference compounds were prepared in the same way and added to the positive control wells. The cell plate was placed in a cell incubator and cultured for 120 h. For endpoint detection, the CellTiter-Glo reagent was melted, and the cell plate was moved to room temperature to equilibrate for 30 minutes, added with 100 µL of CellTiter-Glo to each well, and shaken on an orbital shaker for 5 minutes to fully lyse the cells. The plate was kept at room temperature for 20 minutes to stabilize the luminescence signal, and the luminescence value of each well was full wavelength scanned with a multi-functional microplate reader (Molecular Devices, Spectramax M3 microplate reader).
[Test samples] The compounds of Examples 1-39, and reference compound A
[Data Analysis] The following formula was used to calculate the cell inhibition rate under the action of each concentration of the compounds:
Inhibition rate %=[1−(LumDrug to be tested−LumCulture medium control)/(LumCell control−LUMCulture medium control)]×100%
IC50 values were calculated using GraphPad Prism 7.0 software, nonlinear Sigmoidal regression was used to fit the data to obtain a dose-response curve.
On the technique in general: In ATP-based viability assays light output follows the ATP content of the culture.

Data set [2] in a line: Cassette pharmacokinetic experiment in rats (IV). To be noted: rat, plasma, 1 mg/kg, male SD rats, tail vein IV, 1 mg/mL each compound at 1 mL/kg. It counts as in vivo. An excerpt: 2.1 Pharmacokinetic Properties of Some Compounds of the Present Disclosure Evaluated by Cassette Pharmacokinetic Experiments in Rats.
[Test materials]: Male SD rats, age: 6-8 weeks, body weight 220-250 g, purchased from Zhaoyan (Suzhou) New Drug Research Center Co., Ltd.; Tolbutamide (Aladdin, Cat #H1401054); Sulfobutyl-(Captisol, Shandong Binzhou Zhiyuan Biological Technology Co., Ltd, Cat #20191013); Propylene glycol (15)-stearate (Solutol, Meilun Bio, Cat #50206A); DMSO (Vetec Company, Cat #WXBD0293V); acetonitrile (Sigma-Aldrich, Cat #WXBD1744V); Methanol (Sigma-Aldrich, Cat #WXBD2831V).
[Experimental procedure]: The compound combination was prepared in a solvent of 5% DMSO/10% Solutol/85% (20% Captisol), and the final concentration of each compound was 1 mg/mL. The SD rats were treated with the compound preparation in 1 mL/kg by tail vein IV injection, and blood samples were collected at the time points of 5 min, 15 min, 30 min, 1 h, 2 h, 4 h, 8 h, and 24 h via external jugular vein puncture, centrifuged at low temperature for 20 minutes to collect plasma samples, which were stored at −80° C. until analysis.
[Sample analysis]: Establishing LC-MS/MS compound analysis method
Standard curve preparation: 20 μL of lmg/mL DMSO stock solution for each compound was aspirated and transferred to […] of 50% methanol working solution, and the resulting solution was serially diluted to obtain a standard curve working solution with concentrations of 20000, 10000, 5000, 1000, 500, 100, 50, 20 and […]. Then 5 µL of this standard curve working solution was mixed with 45 μL rat blank plasma to give a standard curve with concentrations of 2000, 1000, 500, 100, 50, 10, 2 and 1 ng/mL for quantification of unknown samples.
Sample pretreatment: 50 μL of unknown plasma sample or standard curve sample was mixed with 250 μL of acetonitrile containing internal standard as a precipitant. The plasma protein was precipitated, extracted for test compounds, and centrifuged at low temperature for 20 minutes. The supernatant was taken, mixed with 0.1% formic acid aqueous solution, and 5 μL of the resulting solution was aspirated for blood concentration analysis.
[Data processing]: A standard curve was plotted using mass spectrometry software, to quantify unknown samples, and pharmacokinetic parameters are calculated by Winnonlin 8.2 using the drug concentration of unknown samples at each time point.

For the molecule `C=CC(=O)N1CCN(c2c(C#N)c(C)nc3c(F)c(-c4ccc(F)c5sc(N)nc45)c(Cl)cc23)C[C@@H]1CC#N` [Example 32], the IC50 in data set [1] (read-out: IC50 value) is below 50 nM.

Consider `C=CC(=O)N1CCN(c2c(C#N)c(OC)nc3c(F)c(-c4ccc(F)c5sc(N)nc45)c(Cl)cc23)CC1` [Example 13, 4-(4-Acryloylpiperazin-1-yl)-7-(2-amino-7-fluorobenzo[d]thiazol-4-yl)-6-chloro-8-fluoro-2-methoxyquinoline-3-carbonitrile], for which, in data set [2], the AUC(0-t) was determined as 1950 ng·h/mL, the clearance was determined as 8.58 mL/min/kg and the half-life was 1.37 h. Turning to `C=CC(=O)N1CCN(c2c(C#N)c(C)nc3c(F)c(-c4ccc(F)c5sc(N)nc45)c(Cl)cc23)CC1` [Example 17, 4-(4-Acryloylpiperazin-1-yl)-7-(2-amino-7-fluorobenzo[d]thiazol-4-yl)-6-chloro-8-fluoro-2-methylquinoline-3-carbonitrile], the IC50 in data set [1] (read-out: IC50 value) is below 50 nM. Take `C=CC(=O)N1CCN(c2c(C#N)c(-c3ccnn3CCN(C)C)nc3c(F)c(-c4ccc(F)c5sc(N)nc45)c(Cl)cc23)CC1` [Example 4, 4-(4-Acryloylpiperazin-1-yl)-7-(2-amino-7-fluorobenzo[d]thiazol-4-yl)-6-chloro-2-(1-(2-(dimethylamino)ethyl)-1H-pyrazol-5-yl)-8-fluoroquinoline-3-carbonitrile]: the inhibition at 1 µM in data set [1] (120 h) turned out to be 94.8%. Besides, the half-maximal inhibitory concentration (IC50) in data set [1] (120 h, read-out: IC50) was 53 nM.

As to `C=CC(=O)N1CCN(c2c(C#N)c(N)nc3c(F)c(-c4cccc5sc(N)nc45)c(Cl)cc23)CC1` [Example 33, 4-(4-Acryloylpiperazin-1-yl)-2-amino-7-(2-aminobenzo[d]thiazol-4-yl)-6-chloro-8-fluoroquinoline-3-carbonitrile], in data set [1] (read-out: IC50 value), the IC50 was below 50 nM. On to `C=CC(=O)N1CCN(c2c(C#N)c(-c3cccc(CN(C)C)c3)nc3c(F)c(-c4ccc(F)c5sc(N)nc45)c(Cl)cc23)CC1` [Example 3, 4-(4-Acryloylpiperazin-1-yl)-7-(2-amino-7-fluorobenzo[d]thiazol-4-yl)-6-chloro-2-(3-((dimethylamino)methyl)phenyl)-8-fluoroquinoline-3-carbonitrile], for which the inhibition at 1 µM in data set [1] (120 h) was determined as 97.7%. Besides, the half-maximal inhibitory concentration (IC50) was 9 nM in data set [1] (120 h, read-out: IC50) and below 20 nM in data set [1] (read-out: IC50 value). Consider `C=C(F)C(=O)N1CCN(c2c(C#N)cnc3c(F)c(-c4ccc(F)c5sc(N)nc45)c(Cl)cc23)CC1` [Example 16, 7-(2-Amino-7-fluorobenzo[d]thiazol-4-yl)-6-chloro-8-fluoro-4-(4-(2-fluoroaryloxy)piperazin-1-yl)quinoline-3-carbonitrile], for which, in data set [2], the AUC(0-t) was found to be 2790 ng·h/mL, the clearance is 5.93 mL/min/kg and the half-life was 3.5 h. Take `C=CC(=O)N1CCN(c2c(C#N)c(-c3cccc(CN(C)C)c3)nc3c(F)c(-c4ccc(F)c5sc(N)nc45)c(Cl)cc23)C[C@H]1C` [Example 6, 4-((R)-4-acryloyl-3-methylpiperazin-1-yl)-7-(2-amino-7-fluorobenzo[d]thiazol-4-yl)-6-chloro-2-(3-((dimethylamino)methyl)phenyl)-8-fluoroquinoline-3-carbonitrile]: the inhibition at 1 µM in data set [1] (120 h) was 95%. The IC50 is 17 nM in data set [1] (120 h, read-out: IC50) and below 20 nM in data set [1] (read-out: IC50 value). For the molecule `C=CC(=O)N1CCN(c2c(C#N)cnc3c(F)c(-c4c(C)ccc5[nH]ncc45)c(Cl)cc23)CC1` [Ref. Comp. B, reference compound], in data set [1] (120 h, read-out: IC50), the IC50 came to 350 nM. On to `C=CC(=O)N1CCN(c2c(C#N)cnc3c(OC)c(-c4ccc(F)c5sc(N)nc45)c(Cl)cc23)CC1` [Example 39, 4-(4-Acryloylpiperazin-1-yl)-7-(2-amino-7-fluorobenzo[d]thiazol-4-yl)-6-chloro-8-methoxy quinoline-3-carbonitrile], for which the IC50 in data set [1] (read-out: IC50 value) is below 20 nM. On the same count and under the same terms, in the case of `C=CC(=O)N1CCN(c2c(C#N)c(N)nc3c(F)c(-c4ccc(F)c5sc(N)nc45)c(Cl)cc23)CC1` [Example 20, 4-(4-Acryloylpiperazin-1-yl)-2-amino-7-(2-amino-7-fluorobenzo[d]thiazol-4-yl)-6-chloro-8-fluoroquinoline-3-carbonitrile] it was below 50 nM. As for `C=CC(=O)N1CCN(c2c(C#N)c(-c3ccnn3CCN(C)C)nc3c(F)c(-c4ccc(F)c5sc(N)nc45)c(Cl)cc23)C[C@H]1C` [Example 7, 4-((R)-4-acryloyl-3-methylpiperazin-1-yl)-7-(2-amino-7-fluorobenzo[d]thiazol-4-yl)-6-chloro-2-(1-(2-(dimethylamino)ethyl)-1H-pyrazol-5-yl)-8-fluoroquinoline-3-carbonitrile], the inhibition at 1 µM in data set [1] (120 h) came out at 90%. Further, in data set [1] (120 h, read-out: IC50), the IC50 came out at 260 nM. As to `C=CC(=O)N1CCN(c2c(C#N)c(-c3ccnn3C)nc3c(F)c(-c4ccc(F)c5sc(N)nc45)c(Cl)cc23)CC1` [Example 14, 4-(4-Acryloylpiperazin-1-yl)-7-(2-amino-7-fluorobenzo[d]thiazol-4-yl)-6-chloro-8-fluoro-2-(1-methyl-1H-pyrazol-5-yl)quinoline-3-carbonitrile], in data set [2], the AUC(0-t) is 1100 ng·h/mL, the clearance worked out at 15.1 mL/min/kg and the half-life was 1.58 h. On to `C=CC(=O)N1CCN(c2c(C#N)c(NC(C)=O)nc3c(F)c(-c4ccc(F)c5sc(N)nc45)c(Cl)cc23)CC1` [Example 37, N-(4-(4-acryloylpiperazin-1-yl)-7-(2-amino-7-fluorobenzo[d]thiazol-4-yl)-6-chloro-3-cyano-8-fluoroquinolin-2-yl)acetamide], for which the IC50 in data set [1] (read-out: IC50 value) is below 50 nM. For `C=CC(=O)N1CCN(c2c(C#N)c(-c3cccc(C(C)N(C)C)c3)nc3c(F)c(-c4ccc(F)c5sc(N)nc45)c(Cl)cc23)CC1` (stereo not drawn) [Example 5, 4-(4-Acryloylpiperazin-1-yl)-7-(2-amino-7-fluorobenzo[d]thiazol-4-yl)-6-chloro-2-(3-(1-(dimethylamino)ethyl)phenyl)-8-fluoroquinoline-3-carbonitrile], the inhibition at 1 µM in data set [1] (120 h) amounted to 94.9%. Also, the IC50 in data set [1] (120 h, read-out: IC50) was 7 nM; in data set [1] (read-out: IC50 value) it was below 20 nM. Regarding `C=CC(=O)N1CCN(c2c(C#N)c(N)nc3c(F)c(-c4c(F)ccc5sc(N)nc45)c(Cl)cc23)CC1` [Example 34, 4-(4-Acryloylpiperazin-1-yl)-2-amino-7-(2-amino-5-fluorobenzo[d]thiazol-4-yl)-6-chloro-8-fluoroquinoline-3-carbonitrile], the IC50 in data set [1] (read-out: IC50 value) was below 50 nM.

These data come from patent US20230406849A1, “KRAS INHIBITORS FOR TREATMENT OF CANCERS” (TYLIGAND BIOSCIENCE (SHANGHAI) LIMITED, priority 2020, published 2023).
